Earlier results in US20230190651A1, “Topical Aerosol Foams” (ARCUTIS BIOTHERAPEUTICS, INC., priority 2021, published 2023).
Where a name gives a salt, the structure may show the parent alone.

| Water Solubility | Compound |
| --- | --- |
| 145,000 mg/liter | Cc1cc(C(C)(C)C)c(O)c(C)c1CC1=NCCN1 [oxymetazoline hydrochloride] |
| 14 mg/L | CCC(=O)O[C@]1(C(=O)CCl)[C@@H](C)C[C@H]2[C@@H]3C[C@H](F)C4=CC(=O)C=C[C@]4(C)[C@@]3(F)[C@@H](O)C[C@@]21C [halobetasol propionate] |
| 0.54 mg/L | O=C(Nc1c(Cl)cncc1Cl)c1ccc(OC(F)F)c(OCC2CC2)c1 [roflumilast] |
| 4 mg/L | CCC(=O)O[C@]1(C(=O)CCl)[C@@H](C)C[C@H]2[C@@H]3CCC4=CC(=O)C=C[C@]4(C)[C@@]3(F)[C@@H](O)C[C@@]21C [clobetasol propionate] |
| 32 mg/L | CCOC(=O)c1ccc(C#Cc2ccc3c(c2)C(C)(C)CCS3)nc1 [tazarotene] |

More lines, now with the values behind:

| Compound | Water Solubility |
| --- | --- |
| CCC[C@@H]1C[C@@H](C(=O)N[C@@H]([C@H]2O[C@H](SC)[C@H](OP(=O)(O)O)[C@@H](O)[C@H]2O)[C@H](C)Cl)N(C)C1 [clindamycin phosphate] | 250,000 mg/liter |
| C=C1/C(=C\C=C2/CCC[C@]3(C)[C@@H]([C@H](C)/C=C/[C@@H](O)C4CC4)CC[C@@H]23)C[C@@H](O)C[C@@H]1O [calcipotriene] | 13.5 mg/L |
| NC(N)=O [urea] | 1,190,000 mg/liter |
| O=C(O)CCCCCCCC(=O)O [azelaic acid] | 2,140 mg/liter |
| ivermectin | 4 mg/L |
| CC1(C)O[C@@H]2C[C@H]3[C@@H]4CCC5=CC(=O)C=C[C@]5(C)[C@H]4[C@@H](O)C[C@]3(C)[C@]2(C(=O)CO)O1 [desonide] | 59 mg/L |
| CC(=O)N1CCN(c2ccc(OCC3COC(Cn4ccnc4)(c4ccc(Cl)cc4Cl)O3)cc2)CC1 (stereo not drawn) [ketoconazole] | 0.09 mg/L |
